Experimental data taken from patent US11234957B2, “Process for preparing water soluble forskolin” (SciPharm S.à.r.l., priority 2017, dated 2022).
Where two headings read alike, the source gives them in different places.

How the values were obtained:
[1] = Maximum solubility of forskolin in aqueous hydroxypropyl-cyclodextrin solutions (Laurenza et al., 1987); type: physicochemical
Description: Aqueous solutions of forskolin had also been produced by dissolving forskolin in solutions of hydroxypropyl-γ-cyclodextrin.

[2] = cited from earlier work
adenylyl cyclase = experiment: Cell culture test - cAMP assay; type: cell-based; conditions: versus forskolin dissolved in DMSO; FIG. 4 and summary
Experimental: The method was performed at the Institute of Pharmacology, Medical University […] of Vienna, Prof. Michael Freissmuth. The forskolin-CD complex was compared with an established method, where forskolin is dissolved and diluted in DMSO. The method has been described previously (Hussain F, et al., BMC Pharmacology 11 (2013), Suppl 2, A6) and is a test platform for the assessment of the chemical induction of stem cells.
Also, the lack of DMSO, which is considered to be a PDE inhibitor (see above), had no […] effect on the results based on preliminary theoretical and practical aspects. The following batches were tested in aliquot molar concentrations as an activator of adenylyl cyclase: […]

Row | SMILES | increase of solubility ([1]; in 40% (w/v) hydroxypropyl-ß-cyclodextrin) | increase of solubility ([1]; in 40% (w/v) hydroxypropyl-γ-cyclodextrin) | Maximum solubility of forskolin ([2]; in 40% (w/v) aqueous solution of hydroxypropyl-ß-cyclodextrin) | Maximum solubility of forskolin ([2]; in 40% (w/v) aqueous solution of hydroxypropyl-γ-cyclodextrin) | activation of adenylyl cyclase (adenylyl cyclase)
1 | C=C[C@@]1(C)CC(=O)[C@]2(O)[C@@]3(C)[C@@H](O)CCC(C)(C)[C@@H]3[C@H](O)[C@H](OC(C)=O)[C@@]2(C)O1 [forskolin, 7-beta-acetoxy-8,13-epoxy-1-alpha, 6-beta, 9-alpha-trihydroxylabd-14-en-11-one] | approx. 16 fold | approx. 65 fold | 2.5 mM | 9.8 mM | –
2 | COC(=O)[C@@H]1C[C@H](OC(C)=O)C(=O)[C@H]2[C@@]1(C)CC[C@H]1C(=O)O[C@H](c3ccoc3)C[C@]21C [salvinorin A] | – | – | – | – | Inactive
3 | COC(=O)[C@@H]1C[C@H](O)C(=O)[C@H]2[C@@]1(C)CC[C@H]1C(=O)O[C@H](c3ccoc3)C[C@]21C [salvinorin B] | – | – | – | – | Inactive
